Source: patent US7807176B2, “Polypeptide promoting vascular endothelial cell growth” (Genomidea, Inc., priority 2004, dated 2010)
Entries after “also recorded” stand apart in the source; their conditions may differ.

Assays:
[1] = test system: endothelial nitric oxide synthase (eNOS) mRNA; assay: Growth factor mRNA expression level: eNOS; assay type: cell-based
HAEC = assay: MTS assay of endothelial cell proliferation with added peptide; assay type: cell-based, human; settings: for endothelial proliferation Increase [times]: MTS, Table 3
Procedure: F2 peptide was synthesized and then contacted in a varying amount with HAEC, and the ability thereof to proliferate the cells was examined by MTS assay. The MTS assay is a modification of the MTT assay, and is a method of measuring living cells based on a reaction of reducing tetrazolium salt (MTS) by living cells in culture, into a colored product formazan. Specifically, this assay is carried out as follows: • HAEC was inoculated onto a 96-well plate at a density of 750 cells/well. • 2 μl/well of each sample was added to 100 μl/well endothelial cell medium (1% FBS, without EGF). 2 μl/well was added every day (until Day 6) (the medium was not exchanged). • 20 μl measurement solution (Cell Titer 96 AQueous One Solution Cell Proliferation Assay (Promega)) was added to each well and mixed with 100 μl of the endothelial cell medium, and the old medium was removed by suction. A mixed suspension of the measurement solution and the cells was put in a volume of 120 μl/well and then incubated for 1 to 5 hours in a CO2 incubator. • The absorbance at 490 nm was measured with a plate reader.
The sample group (8 wells each) is as follows: • NC: Only EBM medium (endothelial cell medium) containing 1% FBS. The other samples were cultured by adding various peptides to this medium containing serum. • VEGF-A: Recombinant VEGF-A (KURABO) was added at a final concentration of 10 ng/ml. • F2-1: F2 peptide was added at a final concentration of 1 ng/ml. • F2-10: F2 peptide was added at a final concentration of 10 ng/ml. • F2-100: F2 peptide was added at a final concentration of 100 ng/ml. • F2-1000: F2 peptide was added at a final concentration of 1000 ng/ml.

[2] = test system: ERK (extracellular signal-related kinase); assay: Effect on ERK activity; settings: data are not shown
[3] = test system: connective tissue growth factor (CTGF) mRNA; assay: Growth factor mRNA expression level: CTGF; assay type: cell-based
[4] = test system: transforming growth factor (TGF-β) mRNA; assay: Growth factor mRNA expression level: TGF-β; assay type: cell-based
Human endothelial cells = assay: Test Example 2: growth of endothelial cells; assay type: cell-based; settings: 1, 10 and 100 ng/ml; Test Example 2, present tense
Procedure: Human endothelial cells are sensitized with the HVJ envelope vector and then cultured in the presence or absence of human F2 peptide added externally (1, 10 and 100 ng/ml), to determine the increase (%) of the number of cells. […] Separately, endothelial cells sensitized with the HVJ envelope vector (concentration: 10 μg/ml) are cultured and an increase in the number of cells is measured to determine percentage increase (%). […] Further, the endothelial cells sensitized with the HVJ envelope vector are cultured in the presence or absence of rabbit anti-human F peptide antibody, and then an increase in the number of cells is measured to determine percentage increase (%).

C57BL/6 female mouse = assay: Matrigel plug assay, in vivo angiogenesis; settings: 1 μg/ml in Matrigel, subcutaneous, after 7 days
Procedure: In order to examine the in vivo angiogenesis-promoting activity of F2 peptide, a Matrigel plug assay (Rikitake, Y et al., Arterioscler Thromb Vasc Biol 20, 1006-1012 (2000)) was carried out. Together with any one of VEGF-A (50 ng/ml), F2 peptide (1 μg/ml) or the control peptide (1 μg/ml) or without adding any sample (negative control), Matrigel (0.5 ml, BD Biosciences, Franklin Lakes, N.J.) depleted of growth factor was mixed with 40 U/ml heparin (Aventis Pharma, Tokyo, JP). Then, each mixture was injected subcutaneously into a C57BL/6 female mouse obtained from Oriental Bioscience (Kyoto, JP). After 7 days, the mouse was sacrificed, and the plug was recovered and fixed in methanol. For immune staining, the section was incubated overnight at 4° C. with anti-CD31 (PECAM-1) monoclonal antibody (diluted at 1:100, BD Pharmigen, San Diego, Calif.) and then incubated for 2 hours with Alexa Flour 488 secondary antibody (1:1000, Molecular Probes, Eugene, Oreg.) before photographing. Every experimental protocol was approved by Animal Committee, Medical Department, Graduate School, Osaka University, JP.

[5] = test system: fibroblast growth factor (FGF-2) mRNA; assay: Growth factor mRNA expression level: FGF-2; assay type: cell-based
microorganism = assay: Antimicrobial activity, minimum inhibitory concentration on microtiter plate; assay type: cell-based; settings: Example 7, method only, MIC not given
Procedure: The antimicrobial activity is evaluated according to US National Committee for Clinical Laboratory Standard (NCCL Documents M7-A3). That is, the minimum concentration of the peptide at which microbial growth is inhibited is determined on a microtiter plate. A microorganism is cultured for 16 hours and then the absorbance at A600 thereof measured. From correlation of predetermined turbidity with colony forming unit (CFU), the […] is diluted with a medium to attain a specified CFU. Each microorganism strain is added at about 5×10^5 CFU/ml (final concentration). 5 mM aqueous solution of each peptide and 1.6 mM solution using a medium are prepared and used in serial dilution. 50 μl peptide at each concentration is pipetted into each well of a microtiter plate into which 50 μl/well microbial suspension has been pipetted (the final concentration of the peptide is 3.1 μM to 800 μM). A well to which the peptide was not added is used as the negative control. […] The concentration shown as results is MIC (μM). According to this method, the antimicrobial activity of the F2 peptide is determined.

c-fos promoter = c-fos promoter assay (c-fos-Luci luciferase); assay type: cell-based, bovine; settings: FIG. 8
Procedure: To further confirm the proliferation ability, an assay using a promoter of proto-oncogene c-fos, which is activated in the earliest stage of cell proliferation, was carried out. The gene c-fos-Luci having luciferase ligated under this promoter, and a candidate gene, were introduced in a weight ratio of 1:1 by lipofection into bovine vascular endothelial cells, and after 24 to 48 hours, the luciferase activity was measured.

MLSLIFLHRLKSMRKRLDRKLRFWHRKNYP (listed as Homo sapiens) [F2 peptide]
effect on mRNA level of eNOS (in words) [1]: did not have any effect
eNOS mRNA Increased Amount [times] ([1]; 24 hrs): 0.1 times
eNOS mRNA Increased Amount [times] ([1]; 48 hrs): 6.1 times
eNOS mRNA Increased Amount [times] ([1]; 72 hrs): 0.7 times
endothelial proliferation Increase [times] (HAEC; 100 ng/ml): 1.23 times
endothelial proliferation Increase [times] (HAEC; 1 μg/ml): 1.475 times
cell proliferation ability (MTS assay, absorbance at 490 nm) (HAEC; F2 peptide 1 to 1000 ng/ml added every day until Day 6, VEGF-A 10 ng/ml, FIG. 9): recognized in a dose-dependent manner, similar to VEGF protein; also recorded: stronger activity of enhancing proliferation of HEAC than VEGF
effect on ERK activity [2]: did not have any direct effect
effect on mRNA level of CTGF (in words) [3]: did not have any effect
CTGF mRNA Increased Amount [times] ([3]; 24 hrs): 0.2 times
CTGF mRNA Increased Amount [times] ([3]; 48 hrs): 1.1 times
CTGF mRNA Increased Amount [times] ([3]; 72 hrs): 0.5 times
effect on mRNA level of TGF-β (in words) [4]: did not have any effect
TGF-b mRNA Increased Amount [times] ([4]; 24 hrs): 2.6 times
TGF-b mRNA Increased Amount [times] ([4]; 48 hrs): 13.6 times
TGF-b mRNA Increased Amount [times] ([4]; 72 hrs): 1.6 times
growth of endothelial cells with externally added peptide (Human endothelial cells): growth of endothelial cells is promoted
newly formed blood vessels containing intact erythrocytes in the plug (C57BL/6 female mouse; FIG. 12): more newly formed blood vessels containing intact erythrocytes than in the mouse receiving a Matrigel containing the control peptide
newly formed blood vessels by immune staining with anti-CD31 antibody (C57BL/6 female mouse; FIG. 13): more newly formed blood vessels
effect on mRNA level of FGF-2 (in words) [5]: did not have any effect
FGF-2 mRNA Increased Amount [times] ([5]; 24 hrs): 5.7 times
FGF-2 mRNA Increased Amount [times] ([5]; 48 hrs): 6.0 times
FGF-2 mRNA Increased Amount [times] ([5]; 72 hrs): 9.4 times
antimicrobial activity (microorganism): has an antimicrobial activity
activity in c-fos promoter assay of gene fragments in pCDNA3.1 (c-fos promoter): same activity as that of VEGF
